Assay: xn = mol fraction of the nth substance listed
Settings: 100 kPa

CCCC[n+]1ccn(C)c1.O=[N+]([O-])[O-] + CCCCCO
viscosity [mPa·s]
Settings | 293.15 K | 303.15 K | 313.15 K | 323.15 K
x1 = 0.0824 | 5.32 | 3.84 | 2.94 | –
x1 = 0.1538 | 6.83 | 4.88 | 3.59 | 2.69
x1 = 0.2318 | 8.87 | 6.36 | 4.68 | 3.38
x1 = 0.3425 | 13.1 | 9.46 | 6.76 | 4.63
x1 = 0.4363 | – | 13.2 | 9.14 | 6.19
x1 = 0.5668 | – | 21 | 14 | 9.37
x1 = 0.6481 | 40.3 | 28.1 | – | 12.31
x1 = 0.7481 | – | 41 | 27 | 17.3
x1 = 0.8416 | 94.9 | 59.8 | – | 24.3
x1 = 0.9415 | 160 | 94 | – | –
x1 = 1 | 224 | 125 | 75.1 | 45.2

CCCCCO + CCCC[n+]1ccn(C)c1.O=[N+]([O-])[O-]
x2 = 0
Settings | viscosity [mPa·s]
293.15 K | 4.03
303.15 K | 3.04
313.15 K | 2.33
323.15 K | 1.81

Reference: a compilation of properties of binary mixtures (doi:10.1016/j.jct.2020.106232)
